Where two headings read alike, the source gives them in different places.
What was measured:
Type in all cases: cell-based
[1] = system: human liver cancer cells Mahlavu; assay: Cell viability test (Resazurin), Mahlavu cells; details: for IC50: Homo sapiens, Mahlavu
Method: (§1) Cell viability was determined with Resazurin (at a final concentration of 25 μg/mL).

[2] = system: human leukemia cells U937; assay: Cell viability test (Resazurin), U937 cells; details: for IC50: Homo sapiens
Method: as §1

[3] = system: human breast cancer cells MDA-MB-468; assay: Cell viability test (Resazurin), MDA-MB-468 cells; details: for IC50: Homo sapiens
Method: as §1

[4] = system: human Glioblastoma cells U87-MG; assay: Cell viability test (Resazurin), U87-MG cells; set-up: evaluation of ability to inhibit cell growth activity (IC50): scale not given here; details: for IC50: Homo sapiens, U-87 MG; for evaluation of ability to inhibit cell growth activity (IC50): grade of the IC50 of Table 2
Method: as §1

[5] = system: human lung cancer cells A549; assay: Cell viability test (Resazurin), A549 cells; set-up: evaluation of ability to inhibit cell growth activity (IC50): scale not given here; details: for IC50: Homo sapiens
Method: as §1

[6] = system: African green monkey kidney cells Vero; assay: Cell viability test (Resazurin), Vero cells; details: for IC50: Chlorocebus sabaeus, Vero
Method: as §1

[7] = system: human breast cancer cells MDA-MB-231; assay: Cell viability test (Resazurin), MDA-MB-231 cells; set-up: evaluation of ability to inhibit cell growth activity (IC50): scale not given here; details: for IC50: Homo sapiens
Method: as §1

[8] = system: human colorectal cancer cells SW-480; assay: Cell viability test (Resazurin), SW480 cells; set-up: evaluation of ability to inhibit cell growth activity (IC50): scale not given here; details: for IC50: Homo sapiens
Method: as §1

[9] = 48 h, 0.1% FCS, Resazurin, read-out: inhibitory concentrations of cell growth activity IC50
[10] = grade of the IC50 of Table 2, read-out: evaluation of ability to inhibit cell growth activity (IC50)
[11] = U-937, 48 h, U937 cells, 48 hours, 0.1% FCS, Resazurin, read-out: inhibitory concentrations of cell growth activity IC50
[12] = U-937, U937 cells, grade of the IC50 of Table 2, read-out: evaluation of ability to inhibit cell growth activity (IC50)
[13] = MDA-MB-468, 48 h, MDA-MB-468 cells, 48 hours, 0.1% FCS, Resazurin, read-out: inhibitory concentrations of cell growth activity IC50
[14] = MDA-MB-468, MDA-MB-468 cells, grade of the IC50 of Table 2, read-out: evaluation of ability to inhibit cell growth activity (IC50)
[15] = A549, 48 h, A549 cells, 48 hours, 0.1% FCS, Resazurin, read-out: inhibitory concentrations of cell growth activity IC50
[16] = A549, A549 cells, grade of the IC50 of Table 2, read-out: evaluation of ability to inhibit cell growth activity (IC50)
[17] = MDA-MB-231, 48 h, MDA-MB-231 cells, 48 hours, 0.1% FCS, Resazurin, read-out: inhibitory concentrations of cell growth activity IC50
[18] = MDA-MB-231, MDA-MB-231 cells, grade of the IC50 of Table 2, read-out: evaluation of ability to inhibit cell growth activity (IC50)
[19] = SW480, 48 h, SW480 cells, 48 hours, 0.1% FCS, Resazurin, read-out: inhibitory concentrations of cell growth activity IC50
[20] = SW480, SW480 cells, grade of the IC50 of Table 2, read-out: evaluation of ability to inhibit cell growth activity (IC50)
[21] = SW480 cells, grade of the IC50 of Table 2
[22] = A549 cells, grade of the IC50 of Table 2
[23] = MDA-MB-231 cells, grade of the IC50 of Table 2

Compound | IC50 [1, 9] | IC50 [1, 10] | IC50 [2, 11] | IC50 [2, 12] | IC50 [3, 13] | IC50 [3, 14] | IC50 [4, 9] | IC50 [4, 10] | IC50 [5, 15] | IC50 [5, 16] | IC50 [6, 9] | IC50 [6, 10] | IC50 [7, 17] | IC50 [7, 18] | IC50 [8, 19] | IC50 [8, 20] | evaluation of ability to inhibit cell growth activity (IC50) [8, 21] | evaluation of ability to inhibit cell growth activity (IC50) [5, 22] | evaluation of ability to inhibit cell growth activity (IC50) [4] | evaluation of ability to inhibit cell growth activity (IC50) [7, 23] | also measured
C[C@H](C/C=C/C(C)(C)O)[C@H]1CC[C@@]2(C)[C@@H]3[C@@H](O)C=C4[C@@H](CC[C@H](O)C4(C)C)[C@]3(C=O)CC[C@]12C [Compound 1] | > 256 µM | > 256 µM | 36.6 µM | 16 to 64 µM | > 256 µM | > 256 µM | 150 µM | 64 to 256 µM | > 256 µM | > 256 µM | > 256 µM | > 256 µM | > 256 µM | > 256 µM | > 256 µM | > 256 µM | – | – | – | – | –
CC(C)=C[C@H](O)C[C@@H](C)[C@H]1CC[C@@]2(C)[C@@H]3[C@@H](O)C=C4[C@@H](CC[C@H](O)C4(C)C)[C@]3(C=O)CC[C@]12C [Compound 2] | 11.3 µM | 8 to 16 µM | 0.05 µM | < 8 µM | 7.25 µM | < 8 µM | 7.52 µM | < 8 µM | 4.16 µM | < 8 µM | 12.8 µM | – | 4.44 µM | < 8 µM | 13.1 µM | 8 to 16 µM | ◯ | – | – | – | evaluation of ability to inhibit cell growth activity (IC50) ([1]; grade of the IC50 of Table 2): ◯; evaluation of ability to inhibit cell growth activity (IC50) ([6]; grade of the IC50 of Table 2): ◯
CC(=O)O[C@H]1C=C2[C@@H](CC[C@H](OC(C)=O)C2(C)C)[C@]2(C=O)CC[C@]3(C)[C@@H]([C@H](C)C[C@H](C=C(C)C)OC(C)=O)CC[C@@]3(C)[C@H]12 [Compound 3] | 23 µM | 16 to 64 µM | 3.45 µM | < 8 µM | 10.4 µM | 8 to 16 µM | 6.82 µM | < 8 µM | 12.2 µM | 8 to 16 µM | > 256 µM | > 256 µM | 5.2 µM | < 8 µM | 18.2 µM | 16 to 64 µM | – | ◯ | – | – | evaluation of ability to inhibit cell growth activity (IC50) ([3]; MDA-MB-468 cells, grade of the IC50 of Table 2): ◯
CC(=O)O[C@H]1C=C2[C@@H](CC[C@H](OC(C)=O)C2(C)C)[C@]2(C=O)CC[C@]3(C)[C@@H]([C@H](C)C/C=C/C(C)(C)O)CC[C@@]3(C)[C@H]12 [Compound 4] | 29.4 µM | 16 to 64 µM | 8.08 µM | 8 to 16 µM | 18.6 µM | 16 to 64 µM | 14.4 µM | 8 to 16 µM | 12.9 µM | 8 to 16 µM | 35.3 µM | 16 to 64 µM | 12.1 µM | 8 to 16 µM | 13 µM | 8 to 16 µM | ◯ | ◯ | ◯ | ◯ | evaluation of ability to inhibit cell growth activity (IC50) ([2]; U937 cells, grade of the IC50 of Table 2): ◯
CC(=O)O[C@H]1C=C2[C@@H](CC[C@H](OC(C)=O)C2(C)C)[C@]2(C=O)CC[C@]3(C)[C@@H]([C@H](C)C[C@@H](O)C=C(C)C)CC[C@@]3(C)[C@H]12 [Compound 5] | 18.5 µM | 16 to 64 µM | 3.67 µM | < 8 µM | 16.8 µM | 16 to 64 µM | 8.8 µM | 8 to 16 µM | 12 µM | 8 to 16 µM | 25.3 µM | 16 to 64 µM | 8.07 µM | 8 to 16 µM | 16.4 µM | 16 to 64 µM | – | ◯ | ◯ | ◯ | –

From patent US10344049B2, “Substituted steroids for the treatment of cancer” (AQUAVAN TECHNOLOGY CO., LTD., priority 2017, dated 2019)
